Laboratory results from patent publication US8022061B2, “N-aryl pyrazole compounds, compositions, and methods for their use” (Amgen Inc., priority 2006, dated 2011).

Legend:
Type in all cases: in vivo
ob/ob mice = assay: Increase of circulating insulin concentrations in treated ob/ob mice; details: male ob/ob mice, dose 10 mg/kg p.o., 10 minutes after dosing, relative to control group
Method: The results presented below exemplify that administration of the compounds as provided herein to an art-recognized animal model of human diabetes can lead to increased circulating insulin concentrations in the animal model.
Male ob/ob mice were weighed and bled from tail vein, and blood glucose levels were determined with a glucometer. Animals were placed into control and treatment groups having similar averages of glucose levels and body weights. In the morning of the following day, animals were dosed with vehicle (control group) or test article (5 ml/kg, p.o.). Blood samples were collected just before and 10 minutes after dosing, and the samples were assayed for insulin and glucose concentrations.
Table 1 provides exemplary data showing the increase of circulating insulin concentrations (expressed as ng/ml) in treated mice relative to control group at 10 minutes after dosing the treated mice. Concentrations of the exemplary compound tested in the mice are provided in the righthand column.

[1] = test system: glucose-challenged animal models of diabetes; assay: Glucose-challenged animal models of diabetes, circulating insulin (FIG. 1); details: glucose challenge, treated animals relative to control animals
Method: The following example describes how compounds can be evaluated in vivo in glucose-challenged animal models.
Art-recognized animal models of diabetes, such as type 2 diabetes, include diet-induced obese C57BL/6 (“B6”) mice and ob/ob mice. See, e.g., Breyer et al., J. Am. Soc. Nephrol. 16:27-45 (2005) and references cited therein.
Rats (aged 5-20) weeks or mice (aged 6-20 weeks) are fasted overnight beginning at 4 pm. Between 9 and 10 am, glucose levels are determined with a glucometer using whole blood samples removed from the tail. The animals are placed into control and treatment groups having similar averages of glucose levels and body weights or similar averages of body weights (B6 mice). Animals are pre-dosed with vehicle (control group) or test article (5-10 mL/kg, p.o., s.c. or i.p.) and then challenged with glucose (1 g/kg, p.o. or i.p.). Blood samples are then collected from the tail and assay for glucose and insulin levels.

C57B6 mice = assay: Glucose lowering effect after oral glucose challenge in C57B6 mice; details: male C57B6 mice, p.o. 30 minutes before oral glucose 3 g/kg; blood glucose before, 20 and 50 minutes after challenge; relative to control group
Method: The following example describes the glucose lowering effect of compounds observed in vivo.
Male C57B6 mice were placed into control and treatment groups having similar averages of body weights. Then, animals were dosed with vehicle (control group) or test article (5 ml/kg, p.o.). Thirty minutes after dosing, glucose (3 g/kg) was orally administered in each animal. Blood samples were collected just before, 20 minutes and 50 minutes after glucose challenge and glucose concentrations in the samples was assessed. The values in Table 2 represent the observed % AUC reduction of blood glucose in the treated animals relative to the control group.

Row | Structure (SMILES) | Increase in Insulin (ob/ob mice) [ng/mL] | circulating insulin levels [1] | % AUC reduction in glucose levels (C57B6 mice) [%]
1 | CCCc1c(C(=O)NC(C)c2ccncc2)cnn1-c1ncc(C)c(-c2cccs2)n1 (centres unmarked) [1-[5-Methyl-4-(2-thienyl)pyrimidin-2-yl]-5-propyl-N-(1-pyridin-4-ylethyl)-1H-pyrazole-4-carboxamide] | 3.9 | increases in circulating insulin levels | –
2 | CCCCc1c(C(=O)NCc2c(C)ncn2CC(=O)O)cnn1-c1ncc(C)c(-c2cccs2)n1 [(5-{[({5-Butyl-1-[5-methyl-4-(2-thienyl)pyrimidin-2-yl]-1H-pyrazol-4-yl}carbonyl)amino]methyl}-4-methyl-1H-imidazol-1-yl)acetic acid] | 3.9 | – | 19
3 | COCc1c(C(=O)NCc2c(CO)ncn2C)cnn1-c1ncc(C)c(-c2cccs2)n1 [N-{[4-(Hydroxymethyl)-1-methyl-1H-imidazol-5-yl]methyl}-5-(methoxymethyl)-1-[5-methyl-4-(2-thienyl)pyrimidin-2-yl]-1H-pyrazole-4-carboxamide] | – | – | 14
